Holding throughout (type): in vivo
In experiment [1] the test system is green peach aphids (Myzus persicae). Description: Myzus persicae oral test. The conditions noted are these: 120 h, 0.8 ppm, after 5 days, read-out: efficacy in %. The method, then: Myzus Persicae—Oral Test • Solvent: 100 parts by weight of acetone To produce a suitable active compound formulation, 1 part by weight of active compound is dissolved using the specified parts by weight of solvent and made up with water until the desired concentration is attained. 50 μl of the active compound preparation are transferred into microtitre plates and made up to a final volume of 200 μl with 150 μl of IPL41 insect medium (33%+15% sugar). Subsequently, the plates are sealed with parafilm, which a mixed population of green peach aphids (Myzus persicae) within a second microtitre plate is able to puncture and imbibe the solution through. After 5 days, the efficacy in % is determined. 100% means that all the aphids have been killed; 0% means that no aphids have been killed.

In experiment [2] the test system is fall armyworm (Spodoptera frugiperda). Nature of the experiment: Spodoptera frugiperda spray test. The conditions noted are these: foliar, 168 h, after 7 days, corn leaf disks, caterpillars, read-out: efficacy in %. The method, then:
Spodoptera Fruaiperda—Spray Test
(§1) • Solvent: 78.0 parts by weight of acetone • 1.5 parts by weight of dimethylformamide • Emulsifier: alkylaryl polyglycol ether
(§2) To produce a suitable active compound formulation, 1 part by weight of active compound is dissolved using the stated parts by weight of solvent and made up with water containing an emulsifier concentration of 1000 ppm until the desired concentration is attained. To produce further test concentrations, the formulation is diluted with emulsifier-containing water.
Leaf disks of corn (Zea mays) are sprayed with an active compound formulation of the desired concentration and, after drying, populated with caterpillars of the fall armyworm (Spodoptera frugiperda).
After 7 days, the efficacy in % is determined. 100% means that all the caterpillars have been killed; 0% means that no caterpillar has been killed.

Experiment [3] relates to green peach aphid (Myzus persicae). Description: Myzus persicae spray test. The conditions noted are these: foliar, 120 h, after 5 days, Chinese cabbage leaf disks, read-out: efficacy in %. The method, then:
Myzus Persicae—Spray Test
(§3) • Solvent: 78 parts by weight of acetone • 1.5 parts by weight of dimethylformamide • Emulsifier: alkylaryl polyglycol ether
as §2
Disks of Chinese cabbage leaves (Brassica pekinensis) infested by all stages of the green peach aphid (Myzus persicae) are sprayed with an active compound formulation of the desired concentration.
After 5 days, the efficacy in % is determined. 100% means that all the aphids have been killed; 0% means that no aphids have been killed.

The subject of the next experiment is Diabrotica balteata. Nature of the experiment: Diabrotica balteata spray test. The conditions noted are these: topical, 168 h, 100 g/ha (=32 μg/cavity), after 7 days, sprayed germinated wheat grains, beetle larvae, read-out: efficacy in %. The method, then: Diabrotica balteata—Spray Test
as §3, §2
Pre-swollen wheat grains (Triticum aestivum) are incubated in a multiwell plate filled with agar and a little water for one day (5 seed grains per cavity). The germinated wheat grains are sprayed with an active compound formulation of the desired concentration. Subsequently, each cavity is infected with 10−20 beetle larvae of Diabrotica balteata.
After 7 days, the efficacy in % is determined. 100% means that all wheat plants have grown as in the untreated, uninfected control; 0% means that no wheat plant has grown.

For experiment [4], the system named is greenhouse red spider mite (Tetranychus urticae). Nature of the experiment: Tetranychus urticae spray test, OP-resistant. As to conditions: 100 g/ha, after 6 days, bean leaf disks. The method, then:
Tetranychus Urticae—Spray Test, OP-Resistant
as §1, §2
Disks of bean leaves (Phaseolus vulgaris) infested with all stages of the greenhouse red spider mite (Tetranychus urticae) are sprayed with an active compound formulation of the desired concentration.
After 6 days, the efficacy in % is determined. 100% means that all the spider mites have been killed; 0% means that no spider mites have been killed.

The record followed here is patent US12297196B2, “Condensed bicyclic heterocyclic derivatives as pest control agents” (Bayer Aktiengesellschaft, priority 2019, dated 2025).

On to `CCS(=O)(=O)c1c(-c2nc3cc(C(F)(F)F)nnc3n2C)ncc2cc(C3(C#N)CC3)ccc12` [Example I-9], for which, in experiment [1], the pest or weed control at 0.8 ppm came out at 90%. Also, the pest or weed control at 100 g/ha in experiment [2] is 100%; in experiment [3], 90%; in the experiment on Diabrotica balteata it was 100%. Further, in experiment [4], the efficacy in % stood at 90%.
